pIC50: −log10 of the molar value.
Tests used:
Cdk4/CyclinD1 = Cdk4/CyclinD1 (Homo sapiens (Human), UniProt P11802); assay: Cdk4 kinase inhibition assay with recombinant Cdk4/CyclinD1, Rb substrate, [33P]-ATP filter plate; type: biochemical; conditions: 25 μM ATP, read-out: Cdk 4 IC50
Procedure, shortened: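 Recombinant Cdk4/CyclinD1 or Cdk6/CyclinD3 phosphorylated Rb protein with [33P]-ATP for 1 h at room temperature. Protein was TCA-precipitated on filter plates and bound radioactivity counted. IC50 by nonlinear regression.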

Cdk6/CyclinD3 = Cdk6/CyclinD3 (Homo sapiens (Human), UniProt Q00534); assay: Cdk6 kinase inhibition assay with recombinant Cdk6/CyclinD3, Rb substrate, [33P]-ATP filter plate; type: biochemical; conditions: 25 μM ATP, read-out: Cdk 6 IC50
Sequence of Cdk6/CyclinD3 (Q00534 whole entry): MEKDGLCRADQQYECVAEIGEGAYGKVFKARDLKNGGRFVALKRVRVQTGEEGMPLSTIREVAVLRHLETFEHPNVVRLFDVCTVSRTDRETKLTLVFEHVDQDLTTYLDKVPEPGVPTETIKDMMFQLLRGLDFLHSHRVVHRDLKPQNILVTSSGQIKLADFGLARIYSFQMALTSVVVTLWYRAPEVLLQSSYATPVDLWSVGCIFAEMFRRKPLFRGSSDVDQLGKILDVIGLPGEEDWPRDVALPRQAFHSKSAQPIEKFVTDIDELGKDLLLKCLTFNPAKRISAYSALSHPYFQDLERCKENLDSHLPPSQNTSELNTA
Sequence of Cdk6/CyclinD3 (P30281 whole entry partner): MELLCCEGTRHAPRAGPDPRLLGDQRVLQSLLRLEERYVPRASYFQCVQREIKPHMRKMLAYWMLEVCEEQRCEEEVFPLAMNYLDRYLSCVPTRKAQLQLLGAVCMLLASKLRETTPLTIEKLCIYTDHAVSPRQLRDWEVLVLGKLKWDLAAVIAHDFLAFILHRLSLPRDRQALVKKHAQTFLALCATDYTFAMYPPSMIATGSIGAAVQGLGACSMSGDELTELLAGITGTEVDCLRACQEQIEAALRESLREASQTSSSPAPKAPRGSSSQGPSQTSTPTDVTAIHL
Method: The Cdk4 and Cdk6 inhibitory activity of the compounds is measured with a kinase inhibition assay using recombinant Cdk4/CyclinD1 or Cdk6/CyclinD3 protein complexes. The protein substrate used in the assay is the retinoblastoma protein (Rb). The kinase reactions are carried out in a 96-well filter plate (MSDV N6B50, Millipore). […] The mixture is incubated at room temperature for 1 hour and the proteins precipitated with an equal volume of 20% TCA. The plates are washed with 10% TCA according to the manufacturer's instruction and dried at room temperature. The amount of the phosphorylated Rb is determined with a TopCount (PerkinElmer). The IC50 of a compound is determined by nonlinear regression curve fitting using software program Prism 5 (GraphPad Software).

Sequence of Cdk4/CyclinD1 (P11802 whole entry): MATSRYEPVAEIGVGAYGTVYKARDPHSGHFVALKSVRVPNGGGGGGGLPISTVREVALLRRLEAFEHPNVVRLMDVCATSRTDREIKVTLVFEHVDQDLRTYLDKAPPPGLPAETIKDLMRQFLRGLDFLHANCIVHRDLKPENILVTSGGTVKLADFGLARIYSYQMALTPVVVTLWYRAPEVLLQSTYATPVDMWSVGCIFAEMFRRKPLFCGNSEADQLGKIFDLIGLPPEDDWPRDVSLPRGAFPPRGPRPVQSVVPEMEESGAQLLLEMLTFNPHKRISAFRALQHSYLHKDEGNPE
Sequence of Cdk4/CyclinD1 (P24385 whole entry partner): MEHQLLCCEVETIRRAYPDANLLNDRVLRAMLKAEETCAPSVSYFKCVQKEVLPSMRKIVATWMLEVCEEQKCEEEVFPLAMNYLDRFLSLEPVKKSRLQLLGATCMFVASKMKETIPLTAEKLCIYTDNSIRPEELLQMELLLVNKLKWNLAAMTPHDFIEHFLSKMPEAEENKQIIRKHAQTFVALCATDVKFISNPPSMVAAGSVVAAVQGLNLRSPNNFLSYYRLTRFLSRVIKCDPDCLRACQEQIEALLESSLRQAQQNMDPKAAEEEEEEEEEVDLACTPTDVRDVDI

Row | SMILES | pIC50 (Cdk4/CyclinD1) | pIC50 (Cdk6/CyclinD3)
1 | c1cnc2c(c1)c1cnc(Nc3ccc(N4CCNCC4)cc3)nc1n2C1CCCC1 [Example 36, (9-Cyclopentyl-9H-pyrido[3′,2′:4,5]pyrrolo[2,3-d]pyrimidin-2-yl)-(4-piperazin-1-yl-phenyl)-amine] | 9.08 | 8.36
2 | c1ccc2c(c1)c1cnc(Nc3ccc(N4CCNCC4)cn3)nc1n2C1CCOCC1 [Example 38, (5-piperazin-1-yl-pyridin-2-yl)-[9-(tetrahydro-pyran-4-yl)-9H-pyrimido[4,5-b]indol-2-yl]-amine] | 8.68 | 7.82
3 | N#Cc1ccc2c3cnc(Nc4ccc(N5CCNCC5)cn4)nc3n(C3CCCC3)c2c1 [Example 41, 9-Cyclopentyl-2-(5-piperazin-1-yl-pyridin-2-ylamino)-9H-pyrimido[4,5-b]indole-7-carbonitrile] | 8.57 | 8.14
4 | COc1cc2c3cnc(Nc4ccc(N5CCNCC5)cn4)nc3n(C3CCCC3)c2cn1 [Example 42, (9-Cyclopentyl-6-methoxy-9H-pyrido[4′,3′:4,5]pyrrolo[2,3-d]pyrimidin-2-yl)-(5-piperazin-1-yl-pyridin-2-yl)-amine] | 6.63 | 6.30
5 | c1ccc2c(c1)c1cnc(Nc3ccc(N4CCNCC4)cc3)nc1n2C1CCOCC1 [Example 46, (4-piperazin-1-yl-phenyl)-[9-(tetrahydro-pyran-4-yl)-9H-pyrimido[4,5-b]indol-2-yl]-amine] | 8.70 | 9.12
6 | c1ccc2c(c1)c1cnc(Nc3ccc(N4CCNCC4)cc3)nc1n2C1CCCC1 [Example 47, (9-Cyclopentyl-9H-pyrimido[4,5-b]indol-2-yl)-(4-piperazin-1-yl-phenyl)-amine] | 8.70 | 8.43
7 | O=C(c1cnc(Nc2ncc3c4ccncc4n(C4CCCC4)c3n2)s1)N1CCNCC1 [Example 50, 9-cyclopentyl-N-(5-(1-piperazinylcarbonyl)-1,3-thiazol-2-yl)-9H-pyrido[4′,3′:4,5]pyrrolo[2,3-d]pyrimidin-2-amine] | 7.18 | 6.95
8 | Cc1cc(N2CCNCC2)cnc1Nc1ncc2c3ccncc3n(C3CCCC3)c2n1 [Example 51, 9-cyclopentyl-N-(3-methyl-5-(1-piperazinyl)-2-pyridinyl)-9H-pyrido[4′,3′:4,5]pyrrolo[2,3-d]pyrimidin-2-amine] | 6.90 | 6.39
9 | COc1nccc2c3cnc(Nc4ccc(N5CCNCC5)cn4)nc3n(C3CCCC3)c12 [Example 52, 9-cyclopentyl-8-(methyloxy)-N-(5-(1-piperazinyl)-2-pyridinyl)-9H-pyrido[4′,3′:4,5]-pyrrolo[2,3-d]pyrimidin-2-amine] | 7.92 | 7.66
10 | O=c1[nH]ccc2c3cnc(Nc4ccc(N5CCNCC5)cn4)nc3n(C3CCCC3)c12 [Example 53, 9-Cyclopentyl-2-((5-(1-piperazinyl)-2-pyridinyl)amino)-7,9-dihydro-8H-pyrido[4′,3′:4,5]-pyrrolo[2,3-d]pyrimidin-8-one] | 8.33 | 7.96
11 | c1cc2c3cnc(Nc4ccc(N[C@@H]5CCNC5)cn4)nc3n(C3CCCC3)c2cn1 [Example 63] | 8.47 | 7.70
12 | c1cc2c3cnc(Nc4ccc(N[C@H]5CCNC5)cn4)nc3n(C3CCCC3)c2cn1 [Example 64] | 8.55 | 7.62
13 | O=S1(=O)CCC(Nc2ccc(Nc3ncc4c5ccncc5n(C5CCCC5)c4n3)nc2)C1 (centres unmarked) [Example 65] | 8.02 | 7.62
14 | O=S1(=O)CCN(c2ccc(Nc3ncc4c5ccncc5n(C5CCCC5)c4n3)nc2)CC1 [Example 66] | 8.27 | 7.14
15 | c1cc2c3cnc(Nc4ccc(NC5CCNCC5)cn4)nc3n(C3CCCC3)c2cn1 [Example 69] | 7.77 | 7.51

Now from value to molecule:

Row | pIC50 (Cdk4/CyclinD1) | pIC50 (Cdk6/CyclinD3) | SMILES
16 | 7.52 | 7.42 | c1ccc2c(c1)CCC2n1c2cnccc2c2cnc(Nc3ccc(N4CCNCC4)cn3)nc21 (centres unmarked) [Example 25, (9-Indan-1-yl-9H-pyrido[4′,3′:4,5]pyrrolo[2,3-d]pyrimidin-2-yl)-(5-piperazin-1-yl-pyridin-2-yl)-amine]
17 | 8.80 | 8.46 | c1cc2c3cnc(Nc4ccc(N5CCNCC5)cn4)nc3n(C34CC5CC(CC(C5)C3)C4)c2cn1 [Example 26, (9-Adamantan-1-yl-9H-pyrido[4′,3′:4,5]pyrrolo[2,3-d]pyrimidin-2-yl)-(5-piperazin-1-yl-pyridin-2-yl)-amine]
18 | 8.26 | 8.15 | CC(C)(C)n1c2cnccc2c2cnc(Nc3ccc(N4CCNCC4)cn3)nc21 [Example 27, (9-tert-Butyl-9H-pyrido[4′,3′:4,5]pyrrolo[2,3-d]pyrimidin-2-yl)-(5-piperazin-1-yl-pyridin-2-yl)-amine]
19 | 7.24 | 7.21 | C[C@H](C1CCCCC1)n1c2cnccc2c2cnc(Nc3ccc(N4CCNCC4)cn3)nc21 [Example 28, (R)-[9-(1-Cyclohexyl-ethyl)-9H-pyrido[4′,3′:4,5]pyrrolo[2,3-d]pyrimidin-2-yl]-(5-piperazin-1-yl-pyridin-2-yl)-amine]
20 | 8.41 | 8.24 | C[C@@H](C1CCCCC1)n1c2cnccc2c2cnc(Nc3ccc(N4CCNCC4)cn3)nc21 [Example 29]
21 | 8.60 | 8.23 | O[C@H]1CC[C@H](n2c3cnccc3c3cnc(Nc4ccc(N5CCNCC5)cn4)nc32)CC1 [Example 31, 4-[2-(5-piperazin-1-yl-pyridin-2-ylamino)-pyrido[4′,3′:4,5]pyrrolo[2,3-d]pyrimidin-9-yl]-trans-cyclohexanol]
22 | 7.89 | 7.52 | c1cc2c3cnc(Nc4ccc(N5CCNCC5)cn4)nc3n(CC3CCCCC3)c2cn1 [Example 32, (9-Cyclohexylmethyl-9H-pyrido[4′,3′:4,5]pyrrolo[2,3-d]pyrimidin-2-yl)-(5-piperazin-1-yl-pyridin-2-yl)-amine]
23 | 8.28 | 8.05 | CC1(n2c3cnccc3c3cnc(Nc4ccc(N5CCNCC5)cn4)nc32)CCC1 [Example 33, [9-(1-Methyl-cyclobutyl)-9H-pyrido[4′,3′:4,5]pyrrolo[2,3-d]pyrimidin-2-yl]-(5-piperazin-1-yl-pyridin-2-yl)-amine]
24 | 7.96 | 7.68 | c1cc2c3cnc(Nc4ccc(N5CCNCC5)cn4)nc3n(C3CCCCCC3)c2cn1 [Example 34, (9-Cycloheptyl-9H-pyrido[4′,3′:4,5]pyrrolo[2,3-d]pyrimidin-2-yl)-(5-piperazin-1-yl-pyridin-2-yl)-amine]
25 | 8.09 | 7.68 | c1cnc2c(c1)c1cnc(Nc3ccc(N4CCNCC4)cn3)nc1n2C1CCCC1 [Example 35, (9-Cyclopentyl-9H-pyrido[3′,2′:4,5]pyrrolo[2,3-d]pyrimidin-2-yl)-(5-piperazin-1-yl-pyridin-2-yl)-amine]
26 | 8.37 | 8.92 | c1ccc2c(c1)c1cnc(Nc3ccc(N4CCNCC4)cn3)nc1n2C1CCCC1 [Example 37, (9-Cyclopentyl-9H-pyrimido[4,5-b]indol-2-yl)-(5-piperazin-1-yl-pyridin-2-yl)-amine]
27 | 8.68 | 8.51 | c1ccc2c(c1)c1cnc(Nc3ccc(N4CCNCC4)cn3)nc1n2C1CCCCCC1 [Example 39, (9-Cycloheptyl-9H-pyrimido[4,5-b]indol-2-yl)-(5-piperazin-1-yl-pyridin-2-yl)-amine]
28 | 6.87 | 6.66 | Oc1cc2c3cnc(Nc4ccc(N5CCNCC5)cn4)nc3n(C3CCCC3)c2cn1 [Example 43, 9-Cyclopentyl-2-(5-piperazin-1-yl-pyridin-2-ylamino)-9H-pyrido[4′,3′:4,5]pyrrolo[2,3-d]pyrimidin-6-ol]
29 | 7.96 | 7.60 | OCC1(n2c3cnccc3c3cnc(Nc4ccc(N5CCNCC5)cn4)nc32)CCCC1 [Example 44, {1-[2-(5-piperazin-1-yl-pyridin-2-ylamino)-pyrido[4′,3′:4,5]pyrrolo[2,3-d]pyrimidin-9-yl]-cyclopentyl}-methanol]
30 | 7.14 | 6.89 | CC(C)(CO)Cn1c2cnccc2c2cnc(Nc3ccc(N4CCNCC4)cn3)nc21 [Example 45, 2,2-Dimethyl-3-[2-(5-piperazin-1-yl-pyridin-2-ylamino)-pyrido[4′,3′:4,5]pyrrolo[2,3-d]pyrimidin-9-yl]-propan-1-ol]
31 | 8.80 | 8.25 | c1cc2c3cnc(Nc4ccc(N5CCCNCC5)cn4)nc3n(C3CCCC3)c2cn1 [Example 48, 9-cyclopentyl-N-(5-(1,4-diazepan-1-yl)-2-pyridinyl)-9H-pyrido[4′,3′:4,5]pyrrolo[2,3-d]pyrimidin-2-amine]
32 | 7.70 | 7.33 | Cc1nccc2c3cnc(Nc4ccc(N5CCNCC5)cn4)nc3n(C3CCCC3)c12 [Example 54, 9-cyclopentyl-8-methyl-N-(5-(1-piperazinyl)-2-pyridinyl)-9H-pyrido[4′,3′:4,5]pyrrolo[2,3-d]pyrimidin-2-amine]
33 | 8.92 | 8.36 | CC1CCC(n2c3cnccc3c3cnc(Nc4ccc(N5CCNCC5)cn4)nc32)CC1 (centres unmarked) [Example 55, 9-(4-methylcyclohexyl)-N-(5-(1-piperazinyl)-2-pyridinyl)-9H-pyrido[4′,3′:4,5]pyrrolo[2,3-d]pyrimidin-2-amine]
34 | 8.70 | 7.77 | Fc1nccc2c3cnc(Nc4ccc(N5CCNCC5)cn4)nc3n(C3CCCC3)c12 [Example 57, 9-Cyclopentyl-8-fluoro-N-(5-(1-piperazinyl)-2-pyridinyl)-9H-pyrido[4′,3′:4,5]pyrrolo[2,3-d]pyrimidin-2-amine]

— patent US8841312B2, “Fused pyridine, pyrimidine and triazine compounds as cell cycle inhibitors” (Amgen Inc., priority 2007, dated 2014)
